Data on one compound can be found in patent publication US20260035339A1, “TETRAHYDRONAPHTHALENE DERIVATIVE” (ATRANSEN PHARMA LTD., priority 2022, published 2026).

pIC50: −log10 of the molar value.

Assay type in all cases: cell-based
The subject of experiment [1] is Mouse colorectal cancer-derived CT26 cells. The experiment can be described thus: Cell proliferation inhibitory effect using mouse colorectal cancer cells (CCK-8 assay). The note with it: 72 hours compound treatment, read-out: Evaluation of IC50 (proliferation inhibition rate of 50%). The essentials: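 Cells seeded at 1000 per well in RPMI 1640 with 10% FBS; after 24 h medium replaced with compound at 0.01-30 μM. Viable cells counted by CCK-8 after 72 h of treatment, and IC50 taken as the concentration giving 50% proliferation inhibition relative to untreated control.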

A further experiment concerns the target human LAT1 (Homo sapiens, UniProt Q01650). The experiment can be described thus: [14C]L-leucine uptake inhibition test using human-LAT1 stably expressing HEK293 cell line. More on the design: having full-length cDNA of human LAT1 or LAT2 inserted under a promoter of CMV; expressed in transfected cells; key to Assay Data: degree of [14C]L-leucine uptake inhibition compared with BCH: a test compound having a higher inhibitory effect than BCH is denoted by A; a test compound having the same inhibitory effect as BCH is denoted by B; a test compound having a lower inhibitory effect than BCH is denoted by C. The method in brief:
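HEK293 cells stably expressing human LAT1, preincubated 10 min in Na^+-free HBSS, then exposed 1 min to 1 μM [14C]L-leucine with racemic compound (0.1, 1.0, 10, 0 μM). Lysate radioactivity counted by scintillation and normalized to protein as uptake per mg protein per minute; graded against BCH.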

For experiment [2], the system named is Human breast cancer cells MCF7. The experiment can be described thus: BNCT-enhancing effect by L-BPA confinement using cultured cells (colony formation after neutron irradiation). The note with it: MCF7 loaded with 100 μM L-[10B]BPA, then 10 μM compound for 60 minutes; neutron rays 5 MW for 4 minutes. Here is the method: Human breast cancer cells MCF7 were plate-cultured in an RPMI medium for 48 hours, then replaced with an RPMI medium containing 100 μM of L-[10B]BPA, and cultured for 15 minutes to allow the L-[10B]BPA to be taken up in the cells. After washing with HBSS, the cells were cultured in an RPMI medium for 60 minutes, and after further washing with HBSS, the cells were peeled off and stored in HBSS at room temperature for 1.5 hours ((−) in FIG. 3A). L-BPA was taken up in the cells, washed with HBSS and then cultured in an RPMI medium containing the compound of Example 1-1 (10 μM) obtained in the present invention for 60 minutes, and after further washing with HBSS, the cells were peeled off and stored in HBSS at room temperature for 1.5 hours ((+) in FIG. 3A). The cells were cultured in an RPMI medium containing no L-[10B]BPA for 15 minutes, and after washing with HBSS, the cells were peeled off and stored in HBSS at room temperature for 1.5 hours ((No BPA Hot control) in FIG. 3A). These three cell samples were irradiated with neutron rays (5 MW for 4 minutes). After irradiation, in order to measure viable cells, the cells were plate-cultured and the number of colonies generated after 2 weeks was measured. The number of viable cells was evaluated as surviving fraction (%) (FIG. 3A).

human LAT1, sequence (Q01650 whole entry): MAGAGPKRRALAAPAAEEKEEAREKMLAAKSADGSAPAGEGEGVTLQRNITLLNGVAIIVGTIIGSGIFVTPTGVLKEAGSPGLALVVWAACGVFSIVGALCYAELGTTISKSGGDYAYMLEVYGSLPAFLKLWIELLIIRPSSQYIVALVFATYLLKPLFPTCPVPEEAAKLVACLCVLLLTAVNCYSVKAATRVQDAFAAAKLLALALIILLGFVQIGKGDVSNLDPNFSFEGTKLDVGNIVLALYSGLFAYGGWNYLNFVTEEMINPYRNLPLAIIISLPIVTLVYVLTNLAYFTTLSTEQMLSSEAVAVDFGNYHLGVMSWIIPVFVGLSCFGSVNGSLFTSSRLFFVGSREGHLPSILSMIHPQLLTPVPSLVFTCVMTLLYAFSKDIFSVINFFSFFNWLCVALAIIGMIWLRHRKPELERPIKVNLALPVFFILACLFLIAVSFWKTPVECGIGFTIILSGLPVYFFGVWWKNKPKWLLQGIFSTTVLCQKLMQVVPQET
human LAT1, sequence (P08195 102-630 partner): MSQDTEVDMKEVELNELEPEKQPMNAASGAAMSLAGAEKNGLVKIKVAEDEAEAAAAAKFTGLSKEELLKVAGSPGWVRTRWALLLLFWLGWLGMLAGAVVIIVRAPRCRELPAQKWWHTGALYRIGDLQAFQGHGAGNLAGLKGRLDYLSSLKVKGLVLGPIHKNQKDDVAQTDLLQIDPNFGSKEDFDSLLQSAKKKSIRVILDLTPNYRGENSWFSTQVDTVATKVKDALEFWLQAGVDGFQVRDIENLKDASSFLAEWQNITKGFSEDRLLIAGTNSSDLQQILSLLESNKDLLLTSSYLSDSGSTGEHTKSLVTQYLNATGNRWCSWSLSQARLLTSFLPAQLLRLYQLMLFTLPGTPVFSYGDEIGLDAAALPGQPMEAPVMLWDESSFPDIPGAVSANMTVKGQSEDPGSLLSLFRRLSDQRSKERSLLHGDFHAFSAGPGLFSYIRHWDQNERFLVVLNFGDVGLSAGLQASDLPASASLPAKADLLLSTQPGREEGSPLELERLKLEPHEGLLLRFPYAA

`NC1(C(=O)O)CCc2ccc(Oc3ccc4ccccc4c3)cc2C1` (stereo not drawn) [Example 1-1, 2-carboxy-7-(naphthalene-2-yloxy)-1,2,3,4-tetrahydronaphthalene-2-aminium chloride]: the pIC50 in experiment [1] was no less than 6.05; at human LAT1 (racemic form, 1 μM [14C]L-leucine, 1 minute, read-out: 50% suppression concentration (racemic form), [14C]L-leucine uptake), no less than 7.00. The “suppression rate of labeled leucine uptake” value at human LAT1 (0.1 μM of the compound (racemic form)) was “about 70%”. For the same compound, the “Assay Data: degree of [14C]L-leucine uptake inhibition compared with BCH” value on human LAT1 (compound (racemic form) and BCH at 0.1, 1.0, 10 μM, 1 μM [14C]L-leucine, 1 minute, Na+-free HBSS) was “A”. Besides, the “LAT1 inhibitory effect, compounds singled out (in words)” value on human LAT1 (same test as Table 1) is on record as “particularly remarkable effects”. Further, the “BNCT-enhancing effect (surviving fraction after neutron irradiation)” value in experiment [2] is on record as “large BNCT-enhancing effect”.
